Where “and” joins values, the source holds several entries; their conditions need not be identical. Equal entries are not always repeated.
Test system: 128128-338-R-J1-PDC spheroids, viability % test/control
Experiment: Anticancer human tumor 128128-338-R-J1-PDC patient-derived melanoma cell line growth inhibition [TAK]
Details: spheroids with HUVEC and MSC; for viability, T/C: stronger effect = lower value
Procedure, shortened: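 Spheroids of 60% malignant cells, 25% HUVEC and 15% hMSC were exposed to targeted agents combined with TAK-243 or ipatasertib. Concentrations started at or near clinical Cmax (10 microM if unknown) and descended in half-log steps.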

[1] = curve of first compound, second compound 0.3 µM
[2] = curve of first compound, second compound 0.949 µM
[3] = curve of first compound, second compound 3 µM
[4] = curve of first compound, second compound 9.49 µM
[5] = curve of first compound, second compound 30 µM
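Also: spheroids exposed to compounds for 7 days.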
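For viability, T/C in this document: 100% = DMSO vehicle wells.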

For `CC(=O)Nc1cccc(-n2c(=O)n(C3CC3)c(=O)c3c(Nc4ccc(I)cc4F)n(C)c(=O)c(C)c32)c1` + CC(C)NCC(C(=O)N1CCN(c2ncnc3c2C(C)CC3O)CC1)c1ccc(Cl)cc1, the IC50 [1] was 1.62 nM, the IC50 [2] was 1.76 nM and the IC50 [3] was 1.25 nM. The IC50 [4] was 0.348 nM, the IC50 [5] was < 0.0949 nM and the viability, T/C (second compound 0.3 µM, first compound 94.9 pM) was 98.8%. For the same compound, the viability, T/C (second compound 0.3 µM, first compound 0.0003 µM) was 97.5%, the viability, T/C (second compound 0.3 µM, first compound 0.000949 µM) was 73.5% and the viability, T/C (second compound 0.3 µM, first compound 0.003 µM) was 22.7%. The viability, T/C (second compound 0.3 µM, first compound 0.00949 µM) was 2.28%, the viability, T/C (second compound 0.3 µM, first compound 0.03 µM) was 1.04% and the viability, T/C (second compound 0.949 µM, first compound 94.9 pM) was 100%. The viability, T/C (second compound 0.949 µM, first compound 0.0003 µM) was 94%, the viability, T/C (second compound 0.949 µM, first compound 0.000949 µM) was 77.8% and the viability, T/C (second compound 0.949 µM, first compound 0.003 µM) was 26.2%. It also gave a viability, T/C (second compound 0.949 µM, first compound 0.00949 µM) of 1.76%, a viability, T/C (second compound 0.949 µM, first compound 0.03 µM) of 0.37% and a viability, T/C (second compound 3 µM, first compound 94.9 pM) of 87.3%. It also gave a viability, T/C (second compound 3 µM, first compound 0.0003 µM) of 82.8%, a viability, T/C (second compound 3 µM, first compound 0.000949 µM) of 61.9% and a viability, T/C (second compound 3 µM, first compound 0.003 µM) of 12.6%. It also gave a viability, T/C (second compound 3 µM, first compound 0.00949 µM) of 0.36%, a viability, T/C (second compound 3 µM, first compound 0.03 µM) of 0.28% and a viability, T/C (second compound 9.49 µM, first compound 94.9 pM) of 63.9%. It also gave a viability, T/C (second compound 9.49 µM, first compound 0.0003 µM) of 55%, a viability, T/C (second compound 9.49 µM, first compound 0.000949 µM) of 16.2% and a viability, T/C (second compound 9.49 µM, first compound 0.003 µM) of 0.75%. For the same compound, the viability, T/C (second compound 9.49 µM, first compound 0.00949 µM) was 0.11%, the viability, T/C (second compound 9.49 µM, first compound 0.03 µM) was 0.09% and the viability, T/C (second compound 30 µM, first compound 94.9 pM) was 20.5%. It also gave a viability, T/C (second compound 30 µM, first compound 0.0003 µM) of 10.1%, a viability, T/C (second compound 30 µM, first compound 0.000949 µM) of 0.5% and a viability, T/C (second compound 30 µM, first compound 0.003 µM) of 0.25%. The viability, T/C (second compound 30 µM, first compound 0.00949 µM) was 0.1% and the viability, T/C (second compound 30 µM, first compound 0.03 µM) was 0.12%.

With `COC1CC2CCC(C)C(O)(O2)C(=O)C(=O)N2CCCCC2C(=O)OC(C(C)CC2CCC(OCCO)C(OC)C2)CC(=O)C(C)C=C(C)C(O)C(OC)C(=O)C(C)CC(C)C=CC=CC=C1C` (centres undefined) the viability, T/C (compound 0.000316 µM) was 108% and 104%, the viability, T/C (compound 0.001 µM) was 102% and the viability, T/C (compound 0.00316 µM) was 96.4% and 93.1%. For the same compound, the viability, T/C (compound 0.01 µM) was 79.5% and 86.7%, the viability, T/C (compound 0.0316 µM) was 64.5% and 67.5% and the viability, T/C (compound 0.1 µM) was 51.6% and 53.8%. For the same compound, the IC50 (curve of compound) was > 100 nM.

In the case of `CCCS(=O)(=O)Nc1ccc(F)c(C(=O)c2c[nH]c3ncc(-c4ccc(Cl)cc4)cc23)c1F`, the viability, T/C (compound 0.316 µM) is reported as 79.4% and 79.2%, the viability, T/C (compound 1 µM) is reported as 60.5% and 59.8% and the viability, T/C (compound 3.16 µM) is reported as 12.7% and 14.3%. For the same compound, the viability, T/C (compound 10 µM) was 0.39% and 0.64%, the viability, T/C (compound 31.6 µM) was 1.44% and 0.22% and the viability, T/C (compound 100 µM) was 1.11% and 5.48%. The IC50 (curve of compound) was 1290 nM and 1280 nM.

`CC(C)CC(NC(=O)CNC(=O)c1cc(Cl)ccc1Cl)B1OC(=O)CC(CC(=O)O)(C(=O)O)O1` (centres undefined) + CC(C)NCC(C(=O)N1CCN(c2ncnc3c2C(C)CC3O)CC1)c1ccc(Cl)cc1 was tested, and the IC50 [1] was 8.01 nM, the IC50 [2] was 7.78 nM and the IC50 [3] was 5.61 nM. The IC50 [4] was 4.79 nM, the IC50 [5] was < 0.316 nM and the viability, T/C (second compound 0.3 µM, first compound 0.000316 µM) was 97.4%. For the same compound, the viability, T/C (second compound 0.3 µM, first compound 0.001 µM) was 100%, the viability, T/C (second compound 0.3 µM, first compound 0.00316 µM) was 102% and the viability, T/C (second compound 0.3 µM, first compound 0.01 µM) was 38.1%. The viability, T/C (second compound 0.3 µM, first compound 0.0316 µM) was 2.27%, the viability, T/C (second compound 0.3 µM, first compound 0.1 µM) was 0.15% and the viability, T/C (second compound 0.949 µM, first compound 0.000316 µM) was 98.6%. For the same compound, the viability, T/C (second compound 0.949 µM, first compound 0.001 µM) was 101%, the viability, T/C (second compound 0.949 µM, first compound 0.00316 µM) was 93% and the viability, T/C (second compound 0.949 µM, first compound 0.01 µM) was 38%. For the same compound, the viability, T/C (second compound 0.949 µM, first compound 0.0316 µM) was 1.94%, the viability, T/C (second compound 0.949 µM, first compound 0.1 µM) was 0.09% and the viability, T/C (second compound 3 µM, first compound 0.000316 µM) was 85.3%. The viability, T/C (second compound 3 µM, first compound 0.001 µM) was 94.1%, the viability, T/C (second compound 3 µM, first compound 0.00316 µM) was 82.7% and the viability, T/C (second compound 3 µM, first compound 0.01 µM) was 16.9%. It also gave a viability, T/C (second compound 3 µM, first compound 0.0316 µM) of 1.1%, a viability, T/C (second compound 3 µM, first compound 0.1 µM) of 0.08% and a viability, T/C (second compound 9.49 µM, first compound 0.000316 µM) of 71%. It also gave a viability, T/C (second compound 9.49 µM, first compound 0.001 µM) of 68.7%, a viability, T/C (second compound 9.49 µM, first compound 0.00316 µM) of 65.1% and a viability, T/C (second compound 9.49 µM, first compound 0.01 µM) of 23.2%. The viability, T/C (second compound 9.49 µM, first compound 0.0316 µM) was 0.49%, the viability, T/C (second compound 9.49 µM, first compound 0.1 µM) was 0.09% and the viability, T/C (second compound 30 µM, first compound 0.000316 µM) was 21.9%. For the same compound, the viability, T/C (second compound 30 µM, first compound 0.001 µM) was 22.4%, the viability, T/C (second compound 30 µM, first compound 0.00316 µM) was 23.8% and the viability, T/C (second compound 30 µM, first compound 0.01 µM) was 3.46%. The viability, T/C (second compound 30 µM, first compound 0.0316 µM) was 0.13% and the viability, T/C (second compound 30 µM, first compound 0.1 µM) was 0.12%.
